Laboratory results as given in ChEMBL document CHEMBL4507268 (2021).

Legend:
Details in all cases: Compound concentration 1.0 uM
[1] = target: Serine/threonine-protein kinase WNK3 (Homo sapiens) (UniProt Q9BYP7)
[2] = target: T1, Serine/threonine-protein kinase DCLK2 (Homo sapiens) (UniProt Q8N568)
T1 sequence (whole entry): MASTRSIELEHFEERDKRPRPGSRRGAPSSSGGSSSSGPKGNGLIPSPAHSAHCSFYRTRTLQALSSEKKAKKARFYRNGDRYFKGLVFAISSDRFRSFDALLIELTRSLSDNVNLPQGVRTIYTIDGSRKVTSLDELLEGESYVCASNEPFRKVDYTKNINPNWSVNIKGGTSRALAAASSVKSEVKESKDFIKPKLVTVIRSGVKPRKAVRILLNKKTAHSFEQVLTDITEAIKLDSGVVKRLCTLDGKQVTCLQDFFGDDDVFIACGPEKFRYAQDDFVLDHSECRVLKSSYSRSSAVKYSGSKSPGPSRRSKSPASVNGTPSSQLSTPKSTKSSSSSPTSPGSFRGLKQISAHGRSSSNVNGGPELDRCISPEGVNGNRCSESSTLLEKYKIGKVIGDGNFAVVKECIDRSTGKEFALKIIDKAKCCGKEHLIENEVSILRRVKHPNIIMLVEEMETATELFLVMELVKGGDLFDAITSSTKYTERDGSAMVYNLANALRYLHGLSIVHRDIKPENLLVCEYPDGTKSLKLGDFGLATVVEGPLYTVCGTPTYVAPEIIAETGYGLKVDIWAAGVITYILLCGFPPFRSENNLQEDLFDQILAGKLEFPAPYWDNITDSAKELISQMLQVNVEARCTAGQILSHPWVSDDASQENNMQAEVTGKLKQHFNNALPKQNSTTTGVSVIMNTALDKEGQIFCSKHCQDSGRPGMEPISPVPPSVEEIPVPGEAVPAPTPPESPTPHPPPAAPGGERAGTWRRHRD

[3] = target: T2, Dual specificity tyrosine-phosphorylation-regulated kinase 2 (Homo sapiens) (UniProt Q92630)
T2 sequence (whole entry): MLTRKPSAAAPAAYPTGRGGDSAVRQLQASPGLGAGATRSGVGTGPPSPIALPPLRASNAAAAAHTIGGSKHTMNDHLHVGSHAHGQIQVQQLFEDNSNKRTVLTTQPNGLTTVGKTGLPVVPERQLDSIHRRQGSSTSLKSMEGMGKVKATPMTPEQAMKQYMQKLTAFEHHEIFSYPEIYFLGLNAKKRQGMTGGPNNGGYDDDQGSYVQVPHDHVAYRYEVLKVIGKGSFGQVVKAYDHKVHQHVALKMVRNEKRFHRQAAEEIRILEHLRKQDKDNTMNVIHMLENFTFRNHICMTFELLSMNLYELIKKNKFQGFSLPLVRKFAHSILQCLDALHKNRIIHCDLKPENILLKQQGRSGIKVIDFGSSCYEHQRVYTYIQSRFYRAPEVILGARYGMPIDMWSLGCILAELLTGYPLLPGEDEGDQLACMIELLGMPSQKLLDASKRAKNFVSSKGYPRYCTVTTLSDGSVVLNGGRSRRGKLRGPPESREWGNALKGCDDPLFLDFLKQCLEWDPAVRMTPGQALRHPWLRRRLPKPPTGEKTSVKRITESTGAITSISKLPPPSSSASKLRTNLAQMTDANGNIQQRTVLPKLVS

[4] = target: T3, Receptor-interacting serine/threonine-protein kinase 1 (Homo sapiens) (UniProt Q13546)
T3 sequence (whole entry): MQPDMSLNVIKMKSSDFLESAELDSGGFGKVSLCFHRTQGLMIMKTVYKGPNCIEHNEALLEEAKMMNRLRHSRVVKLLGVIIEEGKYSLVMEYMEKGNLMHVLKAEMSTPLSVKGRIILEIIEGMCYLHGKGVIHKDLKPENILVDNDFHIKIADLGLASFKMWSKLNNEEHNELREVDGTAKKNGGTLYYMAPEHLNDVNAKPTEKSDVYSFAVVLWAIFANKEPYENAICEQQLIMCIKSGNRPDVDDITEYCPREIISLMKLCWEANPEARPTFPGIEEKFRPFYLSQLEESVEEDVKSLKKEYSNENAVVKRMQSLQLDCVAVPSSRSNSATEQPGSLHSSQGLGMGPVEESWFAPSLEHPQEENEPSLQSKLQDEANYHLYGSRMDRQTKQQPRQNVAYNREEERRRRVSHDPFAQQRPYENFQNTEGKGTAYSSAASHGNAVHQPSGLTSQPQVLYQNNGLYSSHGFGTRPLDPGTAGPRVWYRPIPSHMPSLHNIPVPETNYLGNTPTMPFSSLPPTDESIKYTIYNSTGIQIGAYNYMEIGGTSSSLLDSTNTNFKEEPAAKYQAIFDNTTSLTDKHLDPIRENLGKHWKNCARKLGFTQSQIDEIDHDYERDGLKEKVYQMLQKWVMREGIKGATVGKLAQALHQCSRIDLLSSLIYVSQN

[5] = target: T4, Dual specificity mitogen-activated protein kinase kinase 3 (Homo sapiens) (UniProt P46734)
T4 sequence (whole entry): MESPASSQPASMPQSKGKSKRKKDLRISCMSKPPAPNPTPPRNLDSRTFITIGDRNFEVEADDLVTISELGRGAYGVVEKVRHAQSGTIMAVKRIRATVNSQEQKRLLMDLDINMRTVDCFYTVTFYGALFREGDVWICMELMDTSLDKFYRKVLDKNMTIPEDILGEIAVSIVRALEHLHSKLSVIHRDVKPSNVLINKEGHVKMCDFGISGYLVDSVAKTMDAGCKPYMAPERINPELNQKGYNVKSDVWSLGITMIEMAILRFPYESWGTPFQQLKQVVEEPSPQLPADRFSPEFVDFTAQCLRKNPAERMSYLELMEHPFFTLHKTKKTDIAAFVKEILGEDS

[6] = target: MAP/microtubule affinity-regulating kinase 3 (Homo sapiens) (UniProt P27448)
[7] = target: T5, Dual specificity mitogen-activated protein kinase kinase 7 (Homo sapiens) (UniProt O14733)
T5 sequence (whole entry): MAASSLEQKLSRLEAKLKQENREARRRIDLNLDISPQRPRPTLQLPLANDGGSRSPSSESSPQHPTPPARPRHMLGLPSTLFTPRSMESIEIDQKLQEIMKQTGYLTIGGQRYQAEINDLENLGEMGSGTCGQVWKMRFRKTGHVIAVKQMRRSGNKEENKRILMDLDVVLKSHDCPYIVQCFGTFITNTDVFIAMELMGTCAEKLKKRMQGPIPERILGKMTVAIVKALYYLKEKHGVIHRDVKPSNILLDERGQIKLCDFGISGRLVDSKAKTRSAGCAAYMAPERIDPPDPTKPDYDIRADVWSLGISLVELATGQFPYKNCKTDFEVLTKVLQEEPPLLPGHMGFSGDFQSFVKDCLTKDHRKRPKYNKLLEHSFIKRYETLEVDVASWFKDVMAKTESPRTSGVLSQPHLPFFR

Measured: % residual kinase activity

Serine/threonine-protein kinase WNK3 (Homo sapiens), sequence (Q9BYP7 whole entry): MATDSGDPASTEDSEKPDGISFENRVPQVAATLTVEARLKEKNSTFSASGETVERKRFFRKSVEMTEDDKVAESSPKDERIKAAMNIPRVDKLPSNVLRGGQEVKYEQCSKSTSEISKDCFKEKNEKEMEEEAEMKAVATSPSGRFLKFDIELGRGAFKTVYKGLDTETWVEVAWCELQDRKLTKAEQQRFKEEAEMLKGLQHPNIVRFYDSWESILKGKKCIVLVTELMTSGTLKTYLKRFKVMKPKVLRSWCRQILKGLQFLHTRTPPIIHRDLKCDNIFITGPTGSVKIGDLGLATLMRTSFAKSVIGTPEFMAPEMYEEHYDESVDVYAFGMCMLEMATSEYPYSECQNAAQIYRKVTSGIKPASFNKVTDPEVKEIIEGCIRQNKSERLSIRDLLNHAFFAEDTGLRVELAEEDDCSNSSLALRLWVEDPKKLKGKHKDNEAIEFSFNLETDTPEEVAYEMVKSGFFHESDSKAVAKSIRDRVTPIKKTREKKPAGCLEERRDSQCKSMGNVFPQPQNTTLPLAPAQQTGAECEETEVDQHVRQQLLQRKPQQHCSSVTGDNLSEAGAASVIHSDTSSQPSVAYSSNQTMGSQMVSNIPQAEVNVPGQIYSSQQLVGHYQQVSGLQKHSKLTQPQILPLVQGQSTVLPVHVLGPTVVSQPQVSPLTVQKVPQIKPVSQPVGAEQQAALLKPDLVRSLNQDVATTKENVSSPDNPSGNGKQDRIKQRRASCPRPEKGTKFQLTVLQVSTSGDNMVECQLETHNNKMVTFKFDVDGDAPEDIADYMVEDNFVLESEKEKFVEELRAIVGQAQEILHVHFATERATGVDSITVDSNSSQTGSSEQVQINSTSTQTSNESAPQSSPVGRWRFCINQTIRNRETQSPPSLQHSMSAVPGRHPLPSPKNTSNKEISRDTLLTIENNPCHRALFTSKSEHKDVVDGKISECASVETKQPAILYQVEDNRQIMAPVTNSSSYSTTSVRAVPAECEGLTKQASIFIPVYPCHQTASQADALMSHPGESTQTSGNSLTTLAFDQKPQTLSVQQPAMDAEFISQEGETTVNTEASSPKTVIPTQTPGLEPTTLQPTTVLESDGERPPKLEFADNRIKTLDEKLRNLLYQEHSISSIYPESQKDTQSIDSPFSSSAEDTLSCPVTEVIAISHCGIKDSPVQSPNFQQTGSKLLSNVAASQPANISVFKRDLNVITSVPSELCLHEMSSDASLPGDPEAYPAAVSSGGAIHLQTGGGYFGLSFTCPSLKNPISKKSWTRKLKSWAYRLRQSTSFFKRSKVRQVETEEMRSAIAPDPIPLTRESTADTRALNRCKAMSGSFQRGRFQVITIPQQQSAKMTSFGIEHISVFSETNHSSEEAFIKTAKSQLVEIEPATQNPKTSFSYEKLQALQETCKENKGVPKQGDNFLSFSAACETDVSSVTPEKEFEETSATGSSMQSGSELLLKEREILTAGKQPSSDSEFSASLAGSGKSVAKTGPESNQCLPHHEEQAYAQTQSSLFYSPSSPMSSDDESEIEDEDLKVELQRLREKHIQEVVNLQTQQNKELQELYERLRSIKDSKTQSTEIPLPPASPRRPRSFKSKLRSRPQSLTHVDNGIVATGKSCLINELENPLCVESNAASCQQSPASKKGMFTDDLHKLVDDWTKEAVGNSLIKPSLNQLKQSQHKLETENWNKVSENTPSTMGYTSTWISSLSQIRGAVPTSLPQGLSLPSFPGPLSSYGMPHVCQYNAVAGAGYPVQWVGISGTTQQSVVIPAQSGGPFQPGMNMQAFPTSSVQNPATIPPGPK
MAP/microtubule affinity-regulating kinase 3 (Homo sapiens), sequence (P27448 whole entry, looked up): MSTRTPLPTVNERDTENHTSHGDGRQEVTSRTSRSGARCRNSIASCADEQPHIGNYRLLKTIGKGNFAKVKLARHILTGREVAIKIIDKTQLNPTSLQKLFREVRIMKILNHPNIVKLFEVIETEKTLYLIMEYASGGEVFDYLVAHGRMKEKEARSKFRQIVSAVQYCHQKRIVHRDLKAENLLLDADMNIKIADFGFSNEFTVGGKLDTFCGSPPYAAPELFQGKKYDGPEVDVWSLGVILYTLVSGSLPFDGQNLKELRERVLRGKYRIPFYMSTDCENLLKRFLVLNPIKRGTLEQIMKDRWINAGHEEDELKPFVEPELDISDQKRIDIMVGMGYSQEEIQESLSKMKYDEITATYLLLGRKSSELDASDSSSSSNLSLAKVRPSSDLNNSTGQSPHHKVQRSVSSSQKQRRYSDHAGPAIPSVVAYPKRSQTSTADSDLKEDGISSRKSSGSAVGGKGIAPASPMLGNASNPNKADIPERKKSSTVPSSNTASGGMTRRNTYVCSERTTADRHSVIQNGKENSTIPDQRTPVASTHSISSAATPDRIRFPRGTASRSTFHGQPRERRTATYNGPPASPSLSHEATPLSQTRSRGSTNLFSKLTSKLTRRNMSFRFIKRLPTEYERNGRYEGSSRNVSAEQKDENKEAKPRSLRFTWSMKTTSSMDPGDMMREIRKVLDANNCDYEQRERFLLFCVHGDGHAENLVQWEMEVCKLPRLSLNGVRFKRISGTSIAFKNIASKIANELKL

CN1CCN(c2cnc3c(C4CCN(C(=O)c5ccc(OC(F)(F)F)cc5N)CC4)ncnc3c2)CC1 [BAY-885]
inactive: [1] 107% | [2] 90% | [3] 105% | [4] 100% | [5] 92% | [6] 100% | [7] 106%
